# Laboratory results published in article PMC6151550, “Inhibitory Effect of Selaginellins from Selaginella tamariscina (Beauv.) Spring against Cytochrome P450 and Uridine 5′-Diphosphoglucuronosyltransferase Isoforms on Human Liver Microsomes” (Molecules : A Journal of Synthetic Chemistry and Natural …, 2017).
# Experiments:
# Assay type in all cases: in vitro ADME
# CYP2B6 = molecular target: T1, CYP2B6 (Homo sapiens, UniProt P20813); test: CYP2B6 inhibition (bupropion 4-hydroxylase) in human liver microsomes, substrate cocktail LC-MS/MS
# T1 construct: the incubation mixtures containing pooled HLMs (0.25 mg/mL, H2630, Xenotech); tissue Xenotech H2630; host or cells: pooled human liver microsomes
# T1 sequence (P20813 1-491): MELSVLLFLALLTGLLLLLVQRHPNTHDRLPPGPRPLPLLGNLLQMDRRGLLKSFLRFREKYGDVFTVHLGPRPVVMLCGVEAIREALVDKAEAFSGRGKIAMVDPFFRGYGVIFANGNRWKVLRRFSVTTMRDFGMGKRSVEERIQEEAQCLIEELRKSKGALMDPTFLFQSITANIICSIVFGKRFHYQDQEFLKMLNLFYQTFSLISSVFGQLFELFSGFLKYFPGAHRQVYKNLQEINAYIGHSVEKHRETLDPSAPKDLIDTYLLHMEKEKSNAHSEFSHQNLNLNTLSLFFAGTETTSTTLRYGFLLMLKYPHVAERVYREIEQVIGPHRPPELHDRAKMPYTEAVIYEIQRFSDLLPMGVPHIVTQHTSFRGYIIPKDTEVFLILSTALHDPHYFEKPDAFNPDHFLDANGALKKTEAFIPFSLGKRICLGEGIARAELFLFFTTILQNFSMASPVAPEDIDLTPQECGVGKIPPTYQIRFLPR
# Procedure: The inhibitory effects of two selaginellins on the metabolism of ten P450 probe substrates were evaluated using previously reported method with minor modification. Phenacetin O-deethylase, coumarin 7-hydroxylase, bupropion 4-hydroxylase, amodiaquine N-deethylase, tolbutamide 4-hydroxylase, omeprazole 5-hydroxylase, dextromethorphan O-demethylase, chlorzoxazone 6-hydroxylase and midazolam 1′-hydroxylase activities were determined as probe activities for CYP1A2, CYP2A6, CYP2B6, CYP2C8, CYP2C9, CYP2C19, CYP2D6, CYP2E1 and […], respectively, using substrate cocktail incubation and tandem mass spectrometry (Table 2). Selaginellins were dissolved in methanol. The final concentrations of organic solvent (methanol) for the cocktail incubation conditions in all experiments were 1.0% (v/v). In brief, the incubation mixtures containing pooled HLMs (0.25 mg/mL, H2630, Xenotech), P450 probe substrate cocktail, and inhibitor (0, 0.5, 2, 5, 20 and 50 μM) were preincubated at 37 °C for 5 min. […] After mixing and centrifugation, aliquots were analyzed by liquid chromatography-tandem mass spectrometry (LC-MS/MS) as previous described. The CYP2J2 inhibitory effects of two selaginellins were also evaluated in pooled HLMs using previously reported method. […]
# UGT2B7 = molecular target: T2, UGT2B7 (Homo sapiens, UniProt P16662); test: UGT2B7 inhibition (naloxone glucuronidation) in human liver microsomes, cocktail LC-MS/MS
# T2 construct: from tissue; host or cells: human liver microsomes
# T2 sequence (P16662 24-529): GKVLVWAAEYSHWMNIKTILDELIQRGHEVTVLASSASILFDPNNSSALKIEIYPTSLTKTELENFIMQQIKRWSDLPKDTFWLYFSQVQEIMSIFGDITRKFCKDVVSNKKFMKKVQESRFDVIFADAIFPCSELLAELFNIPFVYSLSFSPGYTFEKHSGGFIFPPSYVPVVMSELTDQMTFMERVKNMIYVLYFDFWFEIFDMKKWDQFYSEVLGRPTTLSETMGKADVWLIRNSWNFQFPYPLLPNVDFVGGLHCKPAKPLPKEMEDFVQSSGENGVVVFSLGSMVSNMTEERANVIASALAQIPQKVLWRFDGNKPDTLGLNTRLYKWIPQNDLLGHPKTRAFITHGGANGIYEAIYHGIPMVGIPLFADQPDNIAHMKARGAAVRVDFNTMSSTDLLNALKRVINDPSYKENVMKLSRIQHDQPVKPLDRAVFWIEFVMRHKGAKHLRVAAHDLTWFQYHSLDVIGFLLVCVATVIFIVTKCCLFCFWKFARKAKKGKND
# Procedure: (§1) The inhibitory effects of two selaginellins on the metabolism of six UGT probe substrates were evaluated using previously reported method with minor modification. In brief, HLMs (0.25 mg/mL) were activated by incubation in the presence of alamethicin (25 μg/mL) for 15 min on ice. After the addition of UGT isoform-selective substrates and selaginellins (0, 0.5, 2, 5, 20 and 50 μM) the final concentrations of organic solvent (methanol) for the cocktail incubation conditions were 1.0% (v/v). The incubation reaction mixtures were pre-incubated for 5 min. The reaction was initiated by the addition of 5 mM UDPGA and further incubated for 60 min. All reactions were terminated by adding ice-cold acetonitrile containing estrone glucuronide (IS). After mixing and centrifugation, aliquots were injected into a LC-MS/MS as described previously (Table 2). All microsomal incubations were performed in triplicate.
# (§2) The IC50 values (concentration of the inhibitor causing 50% inhibition of the original enzyme activity) were calculated using WinNonlin software (Pharsight, Mountain View, CA, USA): percentage of control activity = 100 × [1 − (I/(I + IC50))], where I is the inhibitor concentration, and IC50 is the inflection point on the curve.
# UGT1A1 = molecular target: T3, UGT1A1 (Homo sapiens, UniProt P22309); test: UGT1A1 inhibition (SN-38 glucuronidation) in human liver microsomes, cocktail LC-MS/MS; conditions: IC50 UGT isoform 1A1, HLMs 0.25 mg/mL with alamethicin, SN-38 0.5 μM
# T3 construct: from tissue; host or cells: human liver microsomes
# T3 sequence (P22309 26-533): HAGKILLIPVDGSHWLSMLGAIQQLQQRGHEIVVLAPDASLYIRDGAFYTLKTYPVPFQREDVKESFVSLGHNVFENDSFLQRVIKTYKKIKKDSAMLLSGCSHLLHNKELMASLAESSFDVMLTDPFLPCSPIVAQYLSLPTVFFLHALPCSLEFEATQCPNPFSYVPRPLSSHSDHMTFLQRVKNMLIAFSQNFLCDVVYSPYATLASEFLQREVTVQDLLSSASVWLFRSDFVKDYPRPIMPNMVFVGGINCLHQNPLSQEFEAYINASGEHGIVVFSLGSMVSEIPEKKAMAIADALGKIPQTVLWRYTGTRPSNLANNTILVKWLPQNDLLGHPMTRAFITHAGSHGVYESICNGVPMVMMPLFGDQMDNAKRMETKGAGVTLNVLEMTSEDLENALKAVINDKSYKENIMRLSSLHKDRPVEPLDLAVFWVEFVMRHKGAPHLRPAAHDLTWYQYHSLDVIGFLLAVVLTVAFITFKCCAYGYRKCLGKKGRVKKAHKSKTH
# Procedure: as §1, §2
Compound,IC50 (CYP2B6),IC50 (UGT2B7),IC50 (UGT1A1)
COc1ccc(C(=C2C=CC(=O)C=C2)c2c(-c3ccc(O)cc3)ccc(CO)c2C#Cc2ccc(O)cc2)cc1 [Selaginellin M],11.3 µM,10.4 µM,1.3 µM
O=C1C=CC(=C(c2ccc(O)cc2)c2c(-c3ccc(O)cc3)ccc(CO)c2C#Cc2ccc(O)cc2)C=C1 [Selaginellin],10.7 µM,15.6 µM,1 µM
